Measurements from patent US8828992B2, “Substituted azole derivatives, pharmaceutical composition containing the derivatives, and method for treating Parkinson's disease using the same” (priority 2009, dated 2014).
Where two headings read alike, the source gives them in different places. One block for each compound: values may come before it.

Legend:
[1] = system: dopamine (DA) in the striatum of a MPTP-treated mouse; test: Combined administration with Levodopa group: dopamine in the striatum of MPTP-treated mouse (HPLC); type: in vivo; conditions: compound 1 mg/kg PO co-administered with Levodopa group (Levodopa 50 mg/kg + Benzerazide 25 mg/kg IP); for Concentration of dopamine compared to a control group %, 1 hr: 1 hr after Levodopa; for Concentration of dopamine compared to a control group %, 3 hr: 3 hr after Levodopa
Method: MPTP (20 mg/kg, free base; Sigma, St. louis, Mo.) was administered to an 8 week old (20-25 g) male C57BL/6 test mouse intraperitoneally at the interval of 2 hours to construct a model.
In order to observe the effects of combined administration of a compound of the present invention and Levodopa, the compound of the present invention was dissolved in a solution containing 0.02 ml of dimethylsulfoxide (DMSO), 0.02 ml of Cremophor, 0.08 ml of polyethyleneglycol (PEG), and 0.08 ml of physiological saline. The resulting solution was orally administered at doses of 1 mg/kg one week after the MPTP treatment, and a Levodopa group containing Levodopa at 50 mg/kg and Benzerazide at 25 mg/kg was intraperitoneally administered 1 hour later.
A single administration of the Levodopa group in the following Table 4 indicates values resulting from a MPTP (toxin) treatment followed by an administration of the Levodopa group compared to the treatment results of a Levodopa single administration group of Levodopa and Benzerazide.
At 1 hour and 3 hours after administration of Levodopa, the animals were sacrificed by cervical vertebra dislocation and the brain tissues were immediately isolated from the animals. 0.5 me of iced solution for HPLC analysis (0.1 M perchloric acid and 0.1 mM EDTA) was added to a striatum obtained from the isolated brain tissues, and an ultrasonic grinder was used to prepare a tissue homogenate. The tissue homogenate was centrifuged at 12,000 rpm for 15 minutes, and its supernatant was filtered through nitrocellulose membrane filter (0.2 um, Millipore). For HPLC analysis, uBondapak™ C18 column (4.6×150 mm, particle size 10 μm: Shisheido, Japan) was used, the flow rate of the mobile phase (0.07 M monobasic sodium phosphate, 1 mM sodium octasulfonic acid, 0.1 uM EDTA, 5% acetonitrile, pH 3.2) was maintained at 0.5 me/min, and the electrode potential of the electrochemical detector (CouloChem III, ESA, Japan) was set at 350 mV.

[2] = target: T1, Monoamineoxidase B type human-derived enzyme (Homo sapiens, UniProt P27338); test: Inhibitory effects on the activity of MAO-B (Amplex Red fluorescence, benzylamine substrate); type: biochemical; conditions: for inhibition at 0.01 µM: read-out: Inhibitory effects (%) on the activity of MAO-B; for inhibition at 0.1 µM: treatment concentration 100 nM
T1 sequence (P27338 1-520): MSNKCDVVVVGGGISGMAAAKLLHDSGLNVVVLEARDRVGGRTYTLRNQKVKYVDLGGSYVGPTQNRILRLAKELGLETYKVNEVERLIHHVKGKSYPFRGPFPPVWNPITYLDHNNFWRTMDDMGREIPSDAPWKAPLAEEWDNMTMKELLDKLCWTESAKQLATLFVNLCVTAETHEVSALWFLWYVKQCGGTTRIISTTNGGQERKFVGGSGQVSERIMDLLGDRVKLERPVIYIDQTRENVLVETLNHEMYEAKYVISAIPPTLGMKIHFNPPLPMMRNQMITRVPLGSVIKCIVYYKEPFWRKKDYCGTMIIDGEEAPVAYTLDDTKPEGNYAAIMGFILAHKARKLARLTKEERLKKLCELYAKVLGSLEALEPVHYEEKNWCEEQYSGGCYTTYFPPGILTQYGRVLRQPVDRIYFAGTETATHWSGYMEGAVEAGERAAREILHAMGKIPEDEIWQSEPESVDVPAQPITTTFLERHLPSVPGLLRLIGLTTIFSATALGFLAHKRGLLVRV
Method: Monoamineoxidase A or B type human-derived enzyme (5 mg/ml) was each diluted with 0.05 M sodium phosphate buffer (pH 7.4) to yield a dilution of 1:200, and then 100 μl of an enzyme buffer containing 2 μl of a compound 1 solution at the corresponding concentration was placed in a test plate (flat-bottom) and incubated for 30 minutes.
100 μl of a working buffer containing 400 μM of Amplex Red reagent, 2 U/ml horseradish peroxidase, and 2 mM substrate (tyramine for MAO-A and benzylamine for MAO-B) in 0.05 M sodium phosphate buffer (pH 7.4) was mixed with a pre-incubated enzyme buffer at 1:1 and measured using fluorescence (EX: 563 nm & EM: 587 nm) for 30 minutes.

Compound: NC(=O)OCc1nc(-c2ccc(OCc3ccccc3)cc2)no1 [Example 2, carbamic acid 3-(4-benzyloxy-phenyl)-[1,2,4]oxadiazol-5-ylmethyl ester]
Concentration of dopamine compared to a control group %, 1 hr [1]: 106.12% | Concentration of dopamine compared to a control group %, 3 hr [1]: 43.6% | inhibition at 0.01 µM [2]: 95%

Compound: O=C(OCc1cc(-c2ccc(OCc3ccccc3)cc2)no1)n1ccnc1 [Example 120, Imidazole-1-carboxylic acid 3-(4-benzyloxy-phenyl)-isoxazol-5-ylmethyl ester]
Concentration of dopamine compared to a control group %, 1 hr [1]: 148.5% | Concentration of dopamine compared to a control group %, 3 hr [1]: 53.9% | inhibition at 0.01 µM ([2]; treatment concentration 10 nM): 87.8%

Compound: O=C(OCc1cc(-c2ccc(OCc3ccccc3)cc2)no1)N1CCOCC1 [Example 127, morpholine-4-carboxylic acid 3-(4-benzyloxy-phenyl)-isoxazol-5-ylmethyl ester]
Concentration of dopamine compared to a control group %, 1 hr [1]: 140.7% | Concentration of dopamine compared to a control group %, 3 hr [1]: 60.4% | inhibition at 0.01 µM ([2]; treatment concentration 10 nM): 45.3%

Compound: NCCCNC(=O)OCc1cc(-c2ccc(OCc3ccccc3)cc2)no1 [Example 130, (3-amino-propyl)-carbamic acid 3-(4-benzyloxy-phenyl)-isoxazol-5-ylmethyl ester]
Concentration of dopamine compared to a control group %, 1 hr [1]: 131.9% | Concentration of dopamine compared to a control group %, 3 hr [1]: 77.0% | inhibition at 0.01 µM ([2]; treatment concentration 10 nM): 52.9%

Compound: NC(=O)NCc1cc(-c2ccc(OCc3ccccc3)cc2)no1 [Example 152, [3-(4-benzyloxy-phenyl)-isoxazol-5-ylmethyl]-urea]
Concentration of dopamine compared to a control group %, 1 hr [1]: 87.0% | Concentration of dopamine compared to a control group %, 3 hr [1]: 77.0% | inhibition at 0.01 µM ([2]; treatment concentration 10 nM): 96.1%

Compound: NC(=O)CNCc1cc(-c2ccc(OCc3ccccc3)cc2)no1 [Example 162, 2-{[3-(4-benzyloxy-phenyl)-isoxazol-5-ylmethyl]-amino}-acetamide]
Concentration of dopamine compared to a control group %, 1 hr [1]: 148.3% | Concentration of dopamine compared to a control group %, 3 hr [1]: 100.1% | inhibition at 0.01 µM ([2]; treatment concentration 10 nM): 66.1%

Compound: CC(C)c1nccn1Cc1cc(-c2ccc(OCc3ccccc3)cc2)no1 [Example 179, 3-(4-benzyloxy-phenyl)-5-(2-isopropyl-imidazol-1-ylmethyl)-isoxazole]
inhibition at 0.01 µM ([2]; treatment concentration 10 nM): 26.7%

Compound: CCc1nc(C)cn1Cc1cc(-c2ccc(OCc3ccccc3)cc2)no1 [Example 186, 3-(4-benzyloxy-phenyl)-5-(2-ethyl-4-methyl-imidazol-1-ylmethyl)-isoxazole]
inhibition at 0.01 µM ([2]; treatment concentration 10 nM): 51.2%

Compound: NC(=O)OCc1cc(-c2ccc(OCC3CCCC3)cc2)no1 [Example 193, Carbamic acid 3-(4-cyclopentylmethoxy-phenyl)-isoxazol-5-ylmethyl ester]
inhibition at 0.01 µM [2]: 88.1%

Compound: NC(=O)OCc1cc(-c2ccc(OCc3ccc(F)cc3F)cc2)no1 [Example 196, carbamic acid 3-[4-(2,4-difluoro-benzyloxy)-phenyl]-isoxazol-5-ylmethyl ester]
inhibition at 0.1 µM [2]: 97.1%

Compound: NC(=O)OCc1cc(-c2ccc(OCc3cc(F)ccc3F)cc2)no1 [Example 197, carbamic acid 3-[4-(2,5-difluoro-benzyloxy)-phenyl]-isoxazol-5-ylmethyl ester]
inhibition at 0.1 µM [2]: 96.7%

Compound: NC(=O)OCc1cc(-c2ccc(OCc3ccc(Cl)cc3Cl)cc2)no1 [Example 198, carbamic acid 3-[4-(2,4-dichlorobenzyloxy)-phenyl]-isoxazol-5-ylmethyl ester]
inhibition at 0.1 µM [2]: 95.7%

Compound: NC(=O)OCc1cc(-c2ccc(OCc3c(F)cccc3Cl)cc2)no1 [Example 199, Carbamic acid 3-[4-(2-chloro-6-fluorobenzyloxy)-phenyl]-isoxazol-5-ylmethyl ester]
inhibition at 0.01 µM ([2]; treatment concentration 10 nM): 83.2%

Compound: NC(=O)OCc1cc(-c2ccc(OCc3ccc(C(F)(F)F)cc3)cc2)no1 [Example 202, carbamic acid 3-[4-(4-trifluoromethyl-benzyloxy)-phenyl]-isoxazol-5-ylmethyl ester]
inhibition at 0.1 µM [2]: 95.5%

Compound: NC(=O)OCc1cc(-c2ccc(OCc3ccc4c(c3)OCO4)cc2)no1 [Example 203, carbamic acid 3-[4-(benzo[1,3]dioxol-5-ylmethoxy)-phenyl]-isoxazol-5-ylmethyl ester]
inhibition at 0.01 µM ([2]; treatment concentration 10 nM): 93%

Compound: CC(C)(C)[N+]([O-])=Cc1cccc(COc2ccc(-c3cc(COC(N)=O)on3)cc2)c1 [Example 204, carbamic acid 3-{4-[3-(t-butylnitronyl)-benzyloxy]-phenyl}-isoxazol-5-ylmethyl ester]
Inhibitory effects (%) on the activity of MAO-B ([2]; treatment concentration 10 nM): 98.8%

Now from value to compound:

inhibition at 0.01 µM ([2]; treatment concentration 10 nM): 44.7%
Compound: OCCNCc1cc(-c2ccc(OCc3ccccc3)cc2)no1 [Example 168, 2-{[3-(4-benzyloxy-phenyl)-isoxazol-5-ylmethyl]-amino}-ethanol]

inhibition at 0.01 µM ([2]; treatment concentration 10 nM): 52.7%
Compound: COCCNCc1cc(-c2ccc(OCc3ccccc3)cc2)no1 [Example 174, [3-(4-benzyloxy-phenyl)-isoxazol-5-ylmethyl]-(2-methoxy-ethyl)-amine]

inhibition at 0.01 µM ([2]; treatment concentration 10 nM): 71.5%
Compound: C=CCNCc1cc(-c2ccc(OCc3ccccc3)cc2)no1 [Example 176, Allyl-[3-(4-benzyloxy-phenyl)-isoxazol-5-ylmethyl]-amine]

inhibition at 0.01 µM ([2]; treatment concentration 10 nM): 31.7%
Compound: NC(=O)OCCNCc1cc(-c2ccc(OCc3ccccc3)cc2)no1 [Example 177, Carbamic acid 2-{[3-(4-benzyloxy-phenyl)-isoxazol-5-ylmethyl]-amino}-ethyl ester]

inhibition at 0.01 µM ([2]; treatment concentration 10 nM): 64%
Compound: C#CCN(C)Cc1cc(-c2ccc(OCc3ccccc3)cc2)no1 [Example 178, [3-(4-benzyloxy-phenyl)-isoxazol-5-ylmethyl]-methyl-prop-2-ynyl-amine]

inhibition at 0.01 µM ([2]; treatment concentration 10 nM): 87.6%
Compound: Cc1cccc(COc2ccc(-c3cc(COC(N)=O)on3)cc2)c1 [Example 200, carbamic acid 3-[4-(3-methyl-benzyloxy)-phenyl]-isoxazol-5-ylmethyl ester]

inhibition at 0.01 µM ([2]; treatment concentration 10 nM): 72.4%
Compound: NC(=O)OCc1cc(-c2ccc(OCc3ccccc3C(F)(F)F)cc2)no1 [Example 201, carbamic acid 3-[4-(2-trifluoromethyl-benzyloxy)-phenyl]-isoxazol-5-ylmethyl ester]
